In patent publication US5028603A, “Ester-substituted thienotriazolodiazepine compounds and pharmaceutical uses thereof” (Yoshitomi Pharmaceutical Industries, Ltd., priority 1987, dated 1991):
≈ marks a conversion by molar mass, not a printed value. Where a name gives a salt, the structure may show the parent alone. Read-outs that look alike come from different tables or passages of the source.

Tested on: PAF-induced platelet aggregation
Test: Inhibitory effect on PAF-induced platelet aggregation in rabbits (in vitro test)
Assay type: cell-based
Details: Oryctolagus cuniculus, read-out: Inhibition of PAF-induced platelet aggregation IC50
Experimental: Experiment 1: Inhibitory effect on platelet aggregation in rabbits (in vitro test)
Blood samples to which was added 1/10 volume of 3.8% sodium citrate solution were collected from rabbits. Platelet rich plasma (PRP) was prepared by centrifuging the blood sample at 200×g for 10 minutes, and platelet poor plasma (PPP) was prepared by centrifuging the remaining blood sample at 1000× g for 10 minutes.
Aggregation ability was measured with a turbidimetric device (6-channel NKK Hematracer 1, model PAT-6A) according to the method of G.V.R. Born described in J. Physiology, vol. 168, p. 178 (1963). The aggregometer was adjusted in sensitivity to give light transmission values of 0 and 100% for PRP and PPP, respectively. With stirring at 1000 rpm, 0.3 μl of test compound solution or solvent was added to 0.3 ml of PRP. After the mixture was kept at 37° C. for 2 minutes, to the mixture was added 3 μl synthetic PAF at the final concentration of 1.8×10^-7 M and the light transmission was recorded for 5 minutes.
The inhibition percentage of test compounds on platelet aggregation was calculated from the following formula by measuring the maximal light transmission in the presence and absence of the test compounds. [formula]
IC50 (μg/ml, concentration of 50% inhibition) was graphically determined.

Row | Compound | IC50 (Platelet) | IC50 (rabbit platelet rich plasma, 37° C., PAF final concentration 1.8×10^-7 M)
1 | Cc1nnc2n1-c1sc(C(C)OC(=O)C(C)(C)C)cc1C(c1ccccc1Cl)=NC2 (centres unmarked) [Example 14, 4-(2-chlorophenyl)-9-methyl-2(1-pivaloyloxyethyl)-6H-thieno[3,2-f][1,2,4]triazolo[4,3-a][1,4]diazepine] | 0.2 µg/mL (≈ 0.451 µM) | –
2 | Cc1nnc2n1-c1sc(C(C)OC(=O)C(C)c3ccc(CC(C)C)cc3)cc1C(c1ccccc1Cl)=NC2 (centres unmarked) [Example 2, 2-(1-(2-(4-iso-butylphenyl)propionyl)oxyethyl)-4-(2-chlorophenyl)-9-methyl-6H-thieno[3,2-f][1,2,4]triazolo[4,3-a][1,4]diazepine] | 0.01 to 0.03 µg/mL (≈ 0.0183 to 0.0548 µM) | –
3 | Cc1ccccc1C1=NCc2nnc(C)n2-c2sc(C(C)OC(=O)C(C)c3ccc(CC(C)C)cc3)cc21 (centres unmarked) [Example 4, 2-(1-(2-(4-isobutylphenyl)propionyl)oxyethyl)-4-(2-methylphenyl)-9-methyl-6H-thieno[3,2-f][1,2,4]triazolo[4,3-a][1,4]diazepine] | – | 0.03 to 0.1 µg/mL (≈ 0.057 to 0.19 µM)
4 | CCc1cc2c(s1)-n1c(C)nnc1CN=C2c1ccccc1Cl [Etizolam, 6-(o-chlorophenyl)-8-ethyl-1-methyl-4H-s-triazolo [3,4c]thieno[2,3-e][1,4]diazepine, reference compound] | 1.3 µg/mL (≈ 3.79 µM) | –
5 | Cc1nnc2n1-c1sc(C(C)OC(=O)c3ccccc3)cc1C(c1ccccc1Cl)=NC2 (centres unmarked) [Example 13, 2-(1-benzoyloxyethyl)-4-(2-chlorophenyl)-9-methyl-6H-thieno[3,2-f][1,2,4]triazolo[4,3-a][1,4]diazepine.hydrochloride] | 0.1 to 0.3 µg/mL | –
